Counter-ions that a name gives are not always drawn. Like-named read-outs stand apart in the source and are kept apart here.
Assays:
PDK1 = PDK1 (Homo sapiens (Human), UniProt O15530); experiment: PDK1 kinase assay (coupled PDK1/AKT/FAM-crosstide assay, IMAP fluorescence polarization); assay type: biochemical
Outline: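 Coupled cascade: 0.75 nM PDK1 (51-359) → 10 nM AKT2 (140-467-PIFtide) → 100 nM FAM-crosstide. ATP 40 μM, 25° C, 30 min. IMAP FP (ex 485/em 530), 2 h binding. ΔmP vs conc, 4-param fit.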

[1] = tested on: phospho-akt (Thr308) in PC-3 cells; experiment: Inhibition of phospho-akt (Thr308) in PC-3 cells, MSD phospho-akt 308 ELISA kit; assay type: cell-based; details: Homo sapiens, 2 hours, no serum, read-out: EC50
Outline: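 PC-3 cells were seeded overnight in growth medium with 10% FBS, then exposed to compound serially diluted threefold in serum-free medium for 2 hours. Lysates were captured overnight at 4 degrees on MSD plates and phospho-Akt Thr308 was detected electrochemiluminescently, against DMSO high and 5 μM wortmannin low controls.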

[2] = inhibition of phospo-PDK1 in vitro
[3] = inhibition of P308 Akt in PC-3 cells, MSD
[4] = inhibition of P308 Akt in PC-3 cells using MSD

Chain of PDK1 (O15530 51-359): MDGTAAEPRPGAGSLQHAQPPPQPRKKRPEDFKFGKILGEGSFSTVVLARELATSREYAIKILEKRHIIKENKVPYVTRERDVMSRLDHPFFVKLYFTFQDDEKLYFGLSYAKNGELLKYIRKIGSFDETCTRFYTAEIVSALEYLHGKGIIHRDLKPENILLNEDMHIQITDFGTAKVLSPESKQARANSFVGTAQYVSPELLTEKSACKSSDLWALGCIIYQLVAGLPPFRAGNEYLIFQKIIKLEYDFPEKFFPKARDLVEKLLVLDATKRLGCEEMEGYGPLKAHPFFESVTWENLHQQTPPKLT

Row | Structure (SMILES) | IC50 (PDK1; [2]) | EC50 [1, 3] | IC50 (PDK1; inhibition of PDK1 in vitro) | EC50 [1, 4] | EC50 ([1]; PC-3, 2 h, inhibition of P308 Akt in PC-3 cells, MSD)
1 | CC(C)Oc1cc(CNc2ncccc2C(=O)N(C)C2CC2)cc(-c2c[nH]c3ncc(C(=O)NC4CC4)cc23)c1 [Example 4.1.10, N-cyclopropyl-3-{3-[({3-[cyclopropyl(methyl)carbamoyl]pyridin-2-yl}amino)methyl]-5-(propan-2-yloxy)phenyl}-1H-pyrrolo[2,3-b] pyridine-5-carboxamide] | > 5000 nM | 1000 to 10000 nM |  |  | 
2 | N#Cc1cnc(NCc2ccc(-c3cnc4[nH]nc(N)c4c3)cc2)c(C(=O)NCc2ccc(F)c(F)c2)n1 [Example 31, 3-(4-(3-amino-1H-pyrazolo[3,4-b]pyridin-5-yl)benzylamino)-6-cyano-N-(3,4-difluorobenzyl) pyrazine-2-carboxamide] | < 100 nM | < 1000 nM |  |  | 
3 | C[C@H](NC(=O)c1cccnc1NCc1ccc(-c2cnc3[nH]ncc3c2)cc1)c1ccc(F)cc1 [Example 392, N-[(S)-1-(4-Fluoro-phenyl)-ethyl]-2-[4-(1H-pyrazolo [3,4-b]pyridin-5-yl)-benzylamino]-nicotinamide] |  |  | < 100 nM | 1000 to 10000 nM | 
4 | CNC(=O)c1cnc(NCc2ccc(-c3ccc4ncnc(N)c4c3)s2)c(C(=O)NCc2ccc(F)c(F)c2)c1 [Example 7.24.3, 2-({[5-(4-aminoquinazolin-6-yl)thiophen-2-yl]methyl}amino)-N^3-(3,4-difluorobenzyl)-N^5-methylpyridine-3,5-dicarboxamide] | < 100 nM | < 1000 nM |  |  | 
5 | CCCc1n[nH]c2ncc(-c3ccc(CNc4ncc(C#N)cc4C(=O)N[C@@H](C)c4ccc(F)cc4)cc3)cc12 [Example 147, (S)-5-cyano-N-(1-(4-fluorophenyl)ethyl)-2-(4-(3-propyl-1H-pyrazolo[3,4-b]pyridin-5-yl)benzyl-amino)nicotinamide] |  |  | < 100 nM | 1000 to 10000 nM | 
6 | Nc1n[nH]c2ncc(-c3ccc(CNc4ncc(C(F)(F)F)cc4C(=O)NC4CCOC4)cc3)cc12 (stereo not shown) [Example 305, 2-(4-(3-amino-1H-pyrazolo [3,4-b]pyridin-5-yl)benzylamino)-N-(tetrahydrofuran-3-yl)-5-(trifluoromethyl)nicotinamide] |  |  | 100 to 1000 nM | 1000 to 10000 nM | 
7 | Nc1n[nH]c2ncc(-c3ccc(CNc4ncc(C(F)(F)F)cc4C(=O)Nc4ccc(F)c(F)c4)cc3)cc12 [Example 263, 2-(4-(3-amino-1H-pyrazolo [3,4-b]pyridin-5-yl)benzylamino)-N-(3,4-difluorophenyl)-5-(trifluoromethyl) nicotinamide] |  |  | < 100 nM | < 1000 nM | 
8 | Nc1ncnc2ccc(-c3ccc(CNc4ncc(S(=O)(=O)N5CCOCC5)cc4C(=O)NCc4ccc(F)c(F)c4)s3)cc12 [Example 8.7.12, 2-(((5-(4-aminoquinazolin-6-yl)thiophen-2-yl)methyl)amino)-N-(3,4-difluorobenzyl)-5-(morpholinosulfonyl) nicotinamide] | 100 to 1000 nM | < 1000 nM |  |  | 
9 | CNC(=O)C[C@@H](Nc1ncc(C#N)cc1C(=O)N[C@@H](C)c1ccc(F)cc1)c1ccc(-c2c[nH]c3ncnc(N)c23)cc1 [Example 47, 2-((R)-1-(4-(4 - amino-7H-pyrrolo[2,3-d]pyrimidin-5-yl)phenyl)-3-(methylamino)-3-oxopropylamino)-5-cyano-N-((S)-1-(4-fluorophenyl)ethyl)nicotinamide] |  |  | < 100 nM | > 10000 nM | 
10 | Nc1ncc(-c2ccc(CNc3ncc(C(F)(F)F)cc3C(=O)Nc3ccc(F)cc3)cc2)nc1O[C@@H]1CCNC1 [Example 159, 2-{4-[5-Amino-6-((R)-pyrrolidin-3-yloxy)-pyrazin-2-yl]-benzylamino}-N-(4-fluoro-phenyl)-5-trifluoromethyl-nicotinamide] |  |  | < 100 nM | < 1000 nM | 
11 | Nc1ncnc2ccc(-c3ccc(CNc4ncc(S(N)(=O)=O)cc4C(=O)NCc4ccc(F)c(F)c4)s3)cc12 [Example 8.7.2, 2-({[5-(4-aminoquinazolin-6-yl)thiophen-2-yl]methyl}amino)-N-(3,4-difluorobenzyl)-5-sulfamoylpyridine-3-carboxamide] | < 100 nM | 1000 to 10000 nM |  |  | 
12 | C[C@H](NC(=O)c1cc(C#N)cnc1N[C@H](C)c1ccc(-c2cnc3[nH]nc(N)c3n2)cc1)c1ccc(F)cc1 [Example 435, 2-{(R)-1-[4-(3-Amino-1H-pyrazolo[3,4-b]pyrazin-5-yl)-phenyl]-ethylamino}-5-cyano-N-[(S)-1-(4-fluoro-phenyl)-ethyl]-nicotinamide] |  |  | < 100 nM | < 1000 nM | 
13 | Nc1ncnc2c1c(-c1ccc(CNc3ncc(C(F)(F)F)cc3C(=O)Nc3ccc(F)cc3)cc1)cn2CCCCO [Example 404, 2-(4-(4-amino-7-(4-hydroxybutyl)-7H-pyrrolo [2,3-d]pyrimidin-5-yl)benzylamino)-N-(4-fluorophenyl)-5-(trifluoromethyl)nicotinamide] |  |  | < 100 nM | 1000 to 10000 nM | 
14 | Nc1ncc(-c2ccc(CNc3ncc(C(F)(F)F)cc3C(=O)Nc3ccc(F)cc3)cc2)nc1CCC1CCCNC1 (stereo not shown) [Example 77, 2-{4-[5-Amino-6-(2-piperidin-3-yl-ethyl)-pyrazin-2-yl]-benzylamino}-N-(4-fluoro-phenyl)-5-trifluoromethyl-nicotinamide] |  |  | < 100 nM | 1000 to 10000 nM | 
15 | C[C@@H](NC(=O)c1cc(C(F)(F)F)cnc1NCc1ccc(-c2cnc3[nH]nc(N)c3c2)cc1)c1ccc(Br)cc1 [Example 275, (R)-2-(4-(3-amino-1H-pyrazolo[3,4-b]pyridin-5-yl)benzylamino)-N-(1-(4-bromophenyl)ethyl)-5-(trifluoromethyl) nicotinamide] |  |  | > 5000 nM | > 10000 nM | 
16 | C[C@H](NC(=O)c1cc(S(C)(=O)=O)cnc1NCc1ccc(-c2ccc3ncnc(N)c3c2)s1)c1ccc(F)cc1 [Example 7.22.2, 2-({[5-(4-aminoquinazolin-6-yl)thiophen-2-yl]methyl}amino)-N-[(1S)-1-(4-fluorophenyl)ethyl]-5-(methylsulfonyl)pyridine-3-carboxamide] | 100 to 1000 nM | < 1000 nM |  |  | 
17 | CN(C(=O)c1cc(C(F)(F)F)cnc1NCc1ccc(-c2cnc3[nH]nc(N)c3c2)cc1)c1ccc(F)cc1 [Example 290, 2-(4-(3-amino-1H-pyrazolo [3,4-b]pyridin-5-yl)benzylamino)-N-(4-fluorophenyl)-N-methyl-5-(trifluoromethyl) nicotinamide] |  |  | > 5000 nM | 1000 to 10000 nM | 

Now from value to compound:

Row | IC50 (PDK1; [2]) | EC50 [1, 3] | IC50 (PDK1; inhibition of PDK1 in vitro) | EC50 [1, 4] | EC50 ([1]; PC-3, 2 h, inhibition of P308 Akt in PC-3 cells, MSD) | Structure (SMILES)
18 | < 100 nM | 1000 to 10000 nM |  |  |  | O=C(NCc1ccc(F)c(F)c1)c1cccnc1NCc1ccc(-c2ccc3ncnc(NC4CC4)c3c2)s1 [Example 4.10, 2-(((5-(4-(cyclopropylamino)quinazolin-6-yl)thiophen-2-yl)methyl)amino)-N-(3,4-difluorobenzyl)nicotinamide]
19 | < 100 nM | 1000 to 10000 nM |  |  |  | O=C(NCc1ccc(F)c(F)c1)c1cccnc1NCc1ccc(-c2ccc3ncnc(N4CCC4)c3c2)s1 [Example 4.9, 2-(((5-(4-(azetidin-1-yl)quinazolin-6-yl)thiophen-2-yl)methyl)amino)-N-(3,4-difluorobenzyl)nicotinamide]
20 | 1000 to 5000 nM | > 10000 nM |  |  |  | C[C@H](NC(=O)c1cccnc1NCc1ccc(-c2cc3c(cn2)nc(N)n3C)s1)c1ccc(F)cc1 [Example 2.23, (S)-2-(((5-(2-amino-1-methyl-1H-imidazo[4,5-c]pyridin-6-yl)thiophen-2-yl)methyl)amino)-N-(1-(4-fluorophenyl)ethyl) nicotinamide]
21 | < 100 nM | < 1000 nM |  |  |  | N#Cc1cnc(N[C@@H](COc2ccc3[nH]c(=O)[nH]c3c2)c2ccccc2)c(C(=O)NCc2ccc(F)cc2)n1 [Example 16.12, (R)-6-cyano-N-(4-fluorobenzyl)-3-(2-(2-oxo-2,3-dihydro-1H-benzo[d]imidazol-5-yloxy)-1-phenylethylamino) pyrazine-2-carboxamide]
22 | 100 to 1000 nM | < 1000 nM |  |  |  | C[C@H](NC(=O)c1cc(C#N)cnc1N[C@@H](COc1ccc2[nH]c(=O)[nH]c2c1)c1ccccc1)c1ccc(F)cc1 [Example 16.10]
23 | 100 to 1000 nM | > 10000 nM |  |  |  | Cc1ccc(F)cc1CNC(=O)c1cccnc1NCc1ccc(-c2ccc3ncnc(N)c3c2)s1 [Example 3.18, 2-({[5-(4-aminoquinazolin-6-yl)thiophen-2-yl]methyl}amino)-N-(5-fluoro-2-methylbenzyl) pyridine-3-carboxamide (TFA salt)]
24 | < 100 nM | < 1000 nM |  |  |  | Nc1ncnc2ccc(-c3ccc(CNc4ncccc4C(=O)NCc4cc(F)c(F)c(F)c4)s3)cc12 [Example 3.23, 2-({[5-(4-aminoquinazolin-6-yl)thiophen-2-yl]methyl}amino)-N-(3,4,5-trifluorobenzyl)pyridine-3-carboxamide (TFA salt)]
25 | 1000 to 5000 nM |  |  |  | 1000 to 10000 nM | C[C@H](NC(=O)c1cccnc1NCc1ccc(-c2c[nH]c(=O)c3ccccc23)s1)c1ccc(F)cc1 [Example 2.9, (S)-N-(1-(4-fluorophenyl)ethyl)-2-(((5-(1-oxo-1,2-dihydroiso-quinolin-4-yl)thiophen-2-yl)methyl)amino)nicotinamide]
26 | < 100 nM | < 1000 nM |  |  |  | C[C@H](NC(=O)c1cccnc1NCc1ccc(-c2ccc3ncc4ncn(C)c4c3c2)s1)c1ccc(F)c(F)c1 [Example 2.25, (S)-N-(1-(3,4-difluorophenyl)ethyl)-2-(((5-(1-methyl-1H-imidazo[4,5-c]quinolin-8-yl)thiophen-2-yl)methyl)amino)nicotinamide]
